Calls of active or inactive are those of the source. The rule behind the calls is not given here.
Experiments:
[1] = species on record: Homo sapiens; experiment: Disruption of HSP90 alpha (unknown origin) and PPID (unknown origin) at 50 uM measured after 1 hr by AlphaLISA assay relative to control
[2] = test system: N2a; experiment: Cytoprotective activity against mouse N2a cells assessed as increase in mitochondrial ATP production at 100 to 1000 nM measured by Seahorse extracellular flux analyzer based assay; assay type: functional, cell-based; conditions: dose 100-1000 nM
[3] = test system: N2a; experiment: Cytoprotective activity against mouse N2a cells assessed as decrease in mitochondrial ATP production at 100 to 1000 nM measured by Seahorse extracellular flux analyzer based assay; assay type: functional, cell-based; conditions: dose 100-1000 nM

Row | Structure (SMILES) | Activity [1] | Activity [2] | Activity [3]
1 | CC(=O)NCCc1ccc(O[C@H]2CCC[C@@H](OCc3ccccc3)C2)cc1-c1cccc(F)c1 | > 50% | Active | 
2 | CC(=O)NCCc1ccc(O[C@@H]2CCC[C@@H](SCc3ccccc3)C2)cc1-c1cccc(F)c1 | > 50% | Active | 
3 | CC(=O)NCCc1ccc(O[C@@H]2CCC[C@@H](Cc3ccccc3)C2)cc1-c1cccc(F)c1 | > 50% | Active | 
4 | O[C@H]1CC[C@H](Oc2cccc(Cl)c2)CC1 |  | Active | 
5 | CC(=O)NCCc1ccc(O[C@H]2CCC[C@@H](SCc3ccccc3)C2)cc1-c1cccc(F)c1 |  | Active | 
6 | CC(=O)NCCc1ccc(O[C@H]2CCC[C@@H](Cc3ccccc3)C2)cc1-c1cccc(F)c1 | > 50% | Active | 
7 | CC(=O)NCCc1ccc(O[C@H]2CC[C@H](S(=O)(=O)Cc3ccccc3)CC2)cc1-c1cccc(F)c1 | > 50% | Active | 
8 | CC(=O)NCCc1ccc(O[C@@H]2CCC[C@@H](CCc3ccccc3)C2)cc1-c1cccc(F)c1 | > 50% | Active | 
9 | CC(=O)NCCc1ccc(O[C@H]2CC[C@@H](OCc3ccccc3)CC2)cc1-c1cccc(F)c1 |  | Active | 
10 | CC(=O)NCCc1ccc(O[C@H]2CC[C@@H](SCc3ccccc3)CC2)cc1-c1cccc(F)c1 |  | Active | 
11 | O[C@H]1CC[C@@H](Oc2ccc(Cl)cc2Cl)CC1 |  | Active | 
12 | CC(=O)NCCc1ccc(O[C@@H]2CCC[C@H](Sc3ccccc3)C2)cc1-c1cccc(F)c1 | > 50% | Active | 
13 | CC(=O)NCCc1ccc(O[C@H]2CCC[C@@H](N(C)c3ccccc3)C2)cc1-c1cccc(F)c1 | < 50% | Active | 
14 | CC(=O)NCCc1ccc(OC2CCC(Oc3ccccc3)[C@H](O)[C@@H]2O)cc1-c1cccc(F)c1 (stereo partly drawn) |  | Active | 
15 | O[C@H]1CC[C@H](Oc2ccc(Cl)cc2)CC1 |  | Active | 
16 | O[C@H]1CC[C@@H](Oc2cccc(Cl)c2)CC1 |  | Active | 
17 | CC(=O)NCCc1ccc(O[C@@H]2CCC[C@@H](OCc3ccccc3)C2)cc1-c1cccc(F)c1 | < 50% | Active | 
18 | CC(=O)NCCc1ccc(O[C@@H]2CCC[C@@H](Nc3ccccc3)C2)cc1-c1cccc(F)c1 | < 50% | Active | 
19 | O[C@H]1CC[C@H](Oc2ccc(Cl)cc2Cl)CC1 |  | Active | 
20 | CC(=O)NCCc1ccc(O[C@H]2CCC[C@@H](Sc3ccccc3)C2)cc1-c1cccc(F)c1 | > 50% | Active | 
21 | CC(=O)NCCc1ccc(O[C@@H]2CCC[C@@H](N(C)c3ccccc3)C2)cc1-c1cccc(F)c1 | < 50% | Active | 
22 | O[C@H]1CC[C@@H](Oc2ccc(Cl)cc2)CC1 |  | Active | 
23 | CO[C@@H]1[C@@H](OC(N)=O)[C@@H](O)[C@H](Oc2ccc3c(O)c(NC(=O)c4ccc(O)c(CC=C(C)C)c4)c(=O)oc3c2C)OC1(C)C |  | Active | 
24 | CC(=O)NCCc1ccc(O[C@H]2CCC[C@@H](CCc3ccccc3)C2)cc1-c1cccc(F)c1 | > 50% | Active | 
25 | CC(=O)NCCc1ccc(O[C@H]2CCC[C@@H](Nc3ccccc3)C2)cc1-c1cccc(F)c1 | > 80% | Active | 

Now from value to compound, other results behind:

Row | Activity [1] | Structure (SMILES) | Activity [2] | Activity [3]
26 | > 50% | CC(=O)NCCc1ccc(O[C@H]2CC[C@H](Sc3ccccc3)CC2)cc1-c1cccc(F)c1 | Active | 
27 | > 50% | CC(=O)NCCc1ccc(O[C@H]2CC[C@H](Oc3cccc(Cl)c3)CC2)cc1-c1cccc(F)c1 |  | Active
28 | > 50% | CC(=O)NCCc1ccc(O[C@H]2CC[C@H](Oc3ccc(Cl)cc3Cl)CC2)cc1-c1cccc(F)c1 | Active | 
29 | > 50% | CC(=O)NCCc1ccc(O[C@H]2CC[C@@H](Oc3cccc(Cl)c3)CC2)cc1-c1cccc(F)c1 |  | Active
30 | > 50% | CC(=O)NCCc1ccc(O[C@H]2CC[C@H](S(=O)(=O)c3ccccc3)CC2)cc1-c1cccc(F)c1 | Active | 
31 | > 50% | CC(=O)NCCc1ccc(O[C@H]2CC[C@H](Oc3ccc(Cl)cc3)CC2)cc1-c1cccc(F)c1 |  | Active
32 | > 50% | CC(=O)NCCc1ccc(O[C@H]2CC[C@@H](S(=O)(=O)c3ccccc3)CC2)cc1-c1cccc(F)c1 | Active | 
33 | < 50% | CC(=O)NCCc1ccc(O[C@H]2CC[C@H](SCc3ccccc3)CC2)cc1-c1cccc(F)c1 | Active | 
34 | < 50% | CC(=O)NCCc1ccc(O[C@H]2CC[C@H](N(C)c3ccccc3)CC2)cc1-c1cccc(F)c1 | Active | 
35 | > 50% | CC(=O)NCCc1ccc(O[C@H]2CC[C@@H](Oc3ccc(Cl)cc3Cl)CC2)cc1-c1cccc(F)c1 | Active | 
36 | > 80% | CC(=O)NCCc1ccc(O[C@H]2CC[C@@H](Nc3ccccc3)CC2)cc1-c1cccc(F)c1 | Active | 
37 | > 50% | CC(=O)NCCc1ccc(O[C@H]2CC[C@@H](Oc3ccccc3Cl)CC2)cc1-c1cccc(F)c1 | Active | 
38 | > 50% | CC(=O)NCCc1ccc(O[C@H]2CC[C@H](CCc3ccccc3)CC2)cc1-c1cccc(F)c1 | Active | 
39 | > 50% | CC(=O)NCCc1ccc(O[C@H]2CC[C@H](Oc3ccccc3)CC2)cc1-c1cccc(F)c1 | Active | 
40 | > 50% | CC(=O)NCCc1ccc(O[C@H]2CC[C@@H](Oc3ccc(Cl)cc3)CC2)cc1-c1cccc(F)c1 |  | Active
41 | > 50% | CC(=O)NCCc1ccc(O[C@H]2CC[C@@H](Cc3ccccc3)CC2)cc1-c1cccc(F)c1 | Active | 
42 | > 50% | CC(=O)NCCc1ccc(O[C@H]2CC[C@@H](S(=O)(=O)Cc3ccccc3)CC2)cc1-c1cccc(F)c1 | Active | 
43 | > 50% | CC(=O)NCCc1ccc(O[C@H]2CC[C@H](Oc3ccccc3Cl)CC2)cc1-c1cccc(F)c1 | Active | 
44 | > 50% | CC(=O)NCCc1ccc(O[C@H]2CC[C@@H](Oc3ccccc3)CC2)cc1-c1cccc(F)c1 | Active | 
45 | > 50% | CC(=O)NCCc1ccc(O[C@H]2CC[C@H](C(F)(F)Cc3ccccc3)CC2)cc1-c1cccc(F)c1 | Active | 
46 | < 50% | CC(=O)NCCc1ccc(O[C@H]2CC[C@@H](N(C)c3ccccc3)CC2)cc1-c1cccc(F)c1 | Active | 
47 | < 50% | CC(=O)NCCc1ccc(O[C@H]2CC[C@H](Nc3ccccc3)CC2)cc1-c1cccc(F)c1 | Active | 
48 | > 50% | CC(=O)NCCc1ccc(O[C@@H]2CCC[C@@H](Oc3ccccc3)C2)cc1-c1cccc(F)c1 | Active | 
49 | > 50% | CC(=O)NCCc1ccc(O[C@H]2CC[C@@H](C(F)(F)Cc3ccccc3)CC2)cc1-c1cccc(F)c1 | Active | 
50 | > 50% | CC(=O)NCCc1ccc(O[C@H]2CC[C@H](Cc3ccccc3)CC2)cc1-c1cccc(F)c1 | Active | 
51 | > 50% | CC(=O)NCCc1ccc(O[C@H]2CC[C@@H](Sc3ccccc3)CC2)cc1-c1cccc(F)c1 | Active | 
52 | > 50% | CC(=O)NCCc1ccc(O[C@H]2CCC[C@@H](Oc3ccccc3)C2)cc1-c1cccc(F)c1 | Active | 

From ChEMBL document CHEMBL5113509, “Synthesis and evaluation of 3'- and 4'-substituted cyclohexyl noviomimetics that modulate mitochondrial respiration” (Bioorg Med Chem, 2022)
